These results are taken from US10253015B2, “Pyridinyl quinolinone derivatives as mutant-isocitrate dehydrogenase inhibitors” (FORMA TM2, Inc., priority 2014, dated 2019).

The test system of test [1] is HCT116 isogenic IDH1-R132C mutant cells. The test can be described thus: Cellular 2-HG assay using HCT116 mutant IDH1 cells (R132C). The format is cell-based. The settings on record: Homo sapiens, HCT-116; cellular 2-HG inhibition, 24 hours, RapidFire mass spectrometry; read-out: HCT IDH1 R132C Range IC50. The method, then: (§1) HCT116 isogenic IDH1-R132H and IDH1-R132C mutant cells were cultured in growth media (McCoy's 5 A, 10% fetal bovine serum, 1× antibiotic-antimycotic solution and 0.3 mg/mL G418) in 5% CO2 in an incubator at 37° C. To prepare the assay, cells were trypsinized and resuspended in assay media (McCoy's 5 A with no L-glutamine, 10% fetal bovine serum, 1× antibiotic-antimycotic solution and 0.3 mg/mL G418). An aliquot of 10,000 cells/100 μL was transferred to each well of a clear 96-well tissue culture plate. The cells were incubated in 5% CO2 at 37° C. in an incubator overnight to allow for proper cell attachment. An aliquot of 50 μL of compound containing assay media were then added to each well and the assay plate was kept in 5% CO2 at 37° C. in an incubator for 24 hours. The media was then removed from each well and 150 μL of a methanol/water mixture (80/20 v/v) was added to each well. The plates were kept at −80° C. freezer overnight to allow for complete cell lysis. An aliquot of 125 μL of extracted supernatant was analyzed by RapidFire high-throughout-mass spectrometry (Agilent) to determine the cellular 2-HG level. The IC50 of a given compound was calculated by fitting the dose response curve of cellular 2-HG inhibition at a given concentration with the four parameter logistic equation

Test [2] has as its target IDH1-R132C recombinant protein (Homo sapiens (Human), UniProt O75874, R132C). Briefly: IDH1-R132C enzymatic assay. Type of test: biochemical. As for the experimental part:
Assays were performed in a 384-well black plate. […] After the plate was centrifuged briefly, an aliquot of 10 μL of 2 mM α-ketoglutarate and 20 μM NADPH solution prepared in assay buffer was then added to each well and the reaction was maintained at 25° C. for 45 minutes. An aliquot of 10 μL of diaphorase solution (0.15 U/mL diaphorase and 30 μM Resazurin in assay buffer) was added to each well. […] The IC50 of a given compound was calculated by fitting the dose response curve of inhibition of NADPH consumption at a given concentration with the four parameter logistic equation.

Test [3] relates to HCT116 isogenic IDH1-R132H mutant cells. The test can be described thus: Cellular 2-HG assay using HCT116 mutant IDH1 cells (R132H). Type of test: cell-based. The settings on record: Homo sapiens, HCT-116; cellular 2-HG inhibition, 24 hours, RapidFire mass spectrometry; read-out: HCT IDH1 R132H Range IC50. The method, then:
as §1

In test [4] the target is IDH1-R132H recombinant protein (Homo sapiens (Human), UniProt O75874, R132H). Briefly: IDH1-R132H enzymatic assay. Type of test: biochemical.
Setting [5] is: inhibition of NADPH consumption, diaphorase/resazurin readout, read-out: Enzyme IDH1 R132C Range IC50.
The mark [6] stands for this setting: inhibition of NADPH consumption, diaphorase/resazurin readout, read-out: Enzyme IDH1 R132H Range IC50.

pIC50: −log10 of the molar value. Like-named read-outs stand apart in the source and are kept apart here.

Chain of IDH1-R132C recombinant protein (O75874 whole entry R132C): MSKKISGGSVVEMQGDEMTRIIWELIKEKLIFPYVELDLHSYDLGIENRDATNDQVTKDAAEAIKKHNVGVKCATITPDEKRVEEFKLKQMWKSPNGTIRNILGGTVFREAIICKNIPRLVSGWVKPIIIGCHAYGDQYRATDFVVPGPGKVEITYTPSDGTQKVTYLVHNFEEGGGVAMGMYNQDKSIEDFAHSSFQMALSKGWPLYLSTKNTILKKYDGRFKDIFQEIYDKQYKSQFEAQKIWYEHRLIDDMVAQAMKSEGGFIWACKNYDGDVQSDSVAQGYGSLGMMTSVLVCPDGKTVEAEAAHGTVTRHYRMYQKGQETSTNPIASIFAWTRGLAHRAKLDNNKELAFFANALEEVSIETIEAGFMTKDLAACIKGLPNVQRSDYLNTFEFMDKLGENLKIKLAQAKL
Chain of IDH1-R132H recombinant protein (O75874 whole entry R132H): as the sequence (O75874 whole entry R132C) above, with C132H counted along it

For orientation: pIC50 means the IC50 on a negative log10 scale, so that one unit is a factor of ten. For `COc1cc2[nH]c(=O)c([C@H](C)Nc3cc(C)c(C#N)cn3)cc2cc1Cl` [Compound I-27, 6-{[(1S)-1-(6-chloro-7-methoxy-2-oxo-1,2-dihydroquinolin-3-yl)ethyl]amino}-4-methylpyridine-3-carbonitrile], the pIC50 was 6.00 to 7.00 in test [1], greater than 7.00 in test [2] (setting [5]), 7.00 to 8.00 in test [3] and greater than 7.00 in test [4] (setting [6]).

As for `COc1cc2[nH]c(=O)c(CNc3ccc(C#N)c(C)n3)cc2cc1Cl` [Compound I-83, 6-{[(6-chloro-7-methoxy-2-oxo-1,2-dihydroquinolin-3-yl)methyl]amino}-2-methylpyridine-3-carbonitrile], the negative-log IC50 (pIC50) in test [1] is less than 6.00; in test [2] (setting [5]), less than 5.00; in test [3] it was less than 6.00; in test [4] (setting [6]), greater than 7.00.

For the compound `Cc1nc(NC(C)c2cc3cc(Cl)c(F)cc3[nH]c2=O)ccc1C#N` (stereo not drawn) [Compound I-21, 6-{[1-(6-chloro-7-fluoro-2-oxo-1,2-dihydroquinolin-3-yl)ethyl]amino}-2-methylpyridine-3-carbonitrile], the negative-log IC50 (pIC50) in test [1] was 6.00 to 7.00; in test [2] (setting [5]), 6.00 to 7.00; in test [3] it was 6.00 to 7.00; in test [4] (setting [6]) it was greater than 7.00.

Consider `Cc1cc(N[C@@H](C)c2cc3cc(Cl)ccc3[nH]c2=O)ncc1C#N` [Compound I-5, (S)-6-((1-(6-chloro-2-oxo-1,2-dihydroquinolin-3-yl)ethyl)amino)-4-methyl nicotinonitrile], for which the pIC50 in test [1] was 6.00 to 7.00; in test [2] (setting [5]), 6.00 to 7.00; in test [3], 6.00 to 7.00; in test [4] (setting [6]), greater than 7.00.

On to `Cc1nc(NC(C)c2cc3cc(Cl)c(OCC4CC(F)(F)C4)cc3[nH]c2=O)ccc1C#N` (stereo not drawn) [Compound I-30, 6-[(1-{6-chloro-7-[(3,3-difluorocyclobutyl)methoxy]-2-oxo-1,2-dihydroquinolin-3-yl}ethyl)amino]-2-methylpyridine-3-carbonitrile], for which the negative logarithm of the IC50 (pIC50) in test [1] is 7.00 to 8.00; in test [2] (setting [5]), 6.00 to 7.00; in test [3], 7.00 to 8.00; in test [4] (setting [6]), greater than 7.00.

For `COc1cc2[nH]c(=O)c([C@H](C)Nc3cc(OC)c(C#N)cn3)cc2cc1Cl` [Compound I-25, 6-{[(1S)-1-(6-chloro-7-methoxy-2-oxo-1,2-dihydroquinolin-3-yl)ethyl]amino}-4-methoxypyridine-3-carbonitrile], the pIC50 in test [1] is 6.00 to 7.00; in test [2], greater than 7.00; in test [3] it was 7.00 to 8.00; in test [4] it was greater than 7.00.

With `COc1cc2[nH]c(=O)c([C@H](C)Nc3ccc(C#N)c(OC)n3)cc2cc1Cl` [Compound I-26, 6-{[(1S)-1-(6-chloro-7-methoxy-2-oxo-1,2-dihydroquinolin-3-yl)ethyl]amino}-2-methoxypyridine-3-carbonitrile], the negative-log IC50 (pIC50) in test [1] is 7.00 to 8.00; in test [2] (setting [5]) it was greater than 7.00; in test [3], greater than 8.00; in test [4] (setting [6]), greater than 7.00.

Take `Cc1nc(NC(C)c2cc3cc(Cl)ccc3[nH]c2=O)ccc1C#N` (stereo not drawn) [Compound I-9, 6-{[1-(6-chloro-2-oxo-1,2-dihydroquinolin-3-yl)ethyl]amino}-2-methylpyridine-3-carbonitrile]: the negative logarithm of the IC50 (pIC50) in test [1] was less than 6.00; in test [2] (setting [5]) it was 6.00 to 7.00; in test [3], 6.00 to 7.00; in test [4] (setting [6]), 6.00 to 7.00.

Take `Cc1nc(NCc2cc3cc(Cl)ccc3[nH]c2=O)ccc1C#N` [Compound I-58, 6-{[(6-chloro-2-oxo-1,2-dihydroquinolin-3-yl)methyl]amino}-2-methylpyridine-3-carbonitrile]: the negative-log IC50 (pIC50) in test [1] was less than 6.00; in test [2] (setting [5]), 6.00 to 7.00; in test [3], 6.00 to 7.00; in test [4] (setting [6]), greater than 7.00.
